Experimental data published in patent US11820763B2, “Bromophenol-pyrazoline compound and synthesis method and use thereof” (Lead High Technology (QingDao) Co., Ltd, priority 2020, dated 2023).

System: COVID-19 virus
Experiment: Inhibition of COVID-19 virus replication in Vero E6 cells (vRNA in supernatant by qRT-PCR)
Type: cell-based, COVID-19 virus (clinical isolates) in Vero E6 cells
Settings: for antiviral effect (viral RNA replication): Vero cells infected with COVID-19 virus, MOI 0.05, compound at concentrations of 30 μM and 10 μM, FIG. 2
Experimental: In order to further confirm the results of enzyme inhibition in vitro, whether the bromophenol-pyrazoline compounds can prevent COVID-19 virus replication in Vero E6 cells infected with clinical isolates of COVID-19 virus was evaluated in the present invention.
Specific operations: The pre-seeded Vero E6 cells (5×10^4 cells/well) were pre-treated for 1 hr with various concentrations of bromophenol-pyrazoline compounds to be tested, and then infected for 2 hrs by adding COVID-19 virus (with an MOI of 0.05). Then, the mixture of the virus and compound was removed, and the cells were further incubated in a fresh medium containing the bromophenol-pyrazoline compound. After 24 hrs, the cell supernatant was collected, and the vRNA in the supernatant was analyzed by qRT-PCR.

SMILES	antiviral effect (viral RNA replication)	EC50 (Severe acute respiratory syndrome coronavirus 2, Vero C1008, read-out: EC50, inhibition of virus replication) [µM]
CCOc1ccc(Oc2ccc(C3=NN(C(C)=O)C(c4cc(O)c(O)c(Br)c4Br)C3)cc2)cc1 (stereo not shown) [Compound 6c, 5-(2,3-dibromo-4,5-dihydroxyphenyl)-3-(4-(4-ethoxyphenoxy)phenyl)-4,5-dihydro-1H-1-acetyl pyrazole]	strong antiviral effects	–
CCOc1ccc(Oc2ccc(C3=NNC(c4cc(O)c(O)c(Br)c4Br)C3)cc2)cc1 (stereo not shown) [Compound 6a, 3,4-dibromo-5-(3-(4-(4-ethoxyphenoxy)phenyl)-4,5-dihydro-1H-pyrazol-5-yl)-1,2-dihydroxybenzene]	strong antiviral effects	4.45
CCOc1ccc(Oc2ccc(C3=NN(C=O)C(c4cc(O)c(O)c(Br)c4Br)C3)cc2)cc1 (stereo not shown) [Compound 6b, 5-(2,3-dibromo-4,5-dihydroxyphenyl)-3-(4-(4-ethoxyphenoxy)phenyl)-4,5-dihydro-1H-pyrazol-1-carboxaldehyde]	strong antiviral effects	–
